Reference: US11129867B2, “Method of treating cancer cells” (priority 2017, dated 2021)
Where a SMILES comes first, the peptide text is derived from it. The star is where a group is joined. X1 = CN(C)c1ccc2c(-c3ccc(C(=O)*)cc3C(=O)[O-])c3ccc(=[N+](C)C)cc-3oc2c1

Legend:
MCF7 = assay: WST-8 cell viability assay, MCF7; format: cell-based; conditions: MCF7 (breast cancer), different concentrations, 48 hours, FIG. 3
Protocol: Human oral squamous cell carcinoma (OSCC) cell lines, Ca922, OSC20, OECM-1, OC3, CGHNC9, HSC3, plus A549, MDA-MB-231, MCF7, Huh7, HeLa-Kyoto, Detroit 562, H520, H2170, and 293T cells were used in this study. Ca922, CGHNC9, MDA-MB-231, MCF7, Huh7, HeLa-Kyoto, Detroit 562, and 293T cells were all cultured in high-glucose Dulbecco's Modified Eagle Medium (DMEM). OSC20 and HSC3 cells were cultured in Dulbecco's Modified of Eagle's Medium/Ham's F-12 50/50 Mix (1:1). OECM-1, A549, H520, and H2170 cells were grown in RPMI-1640 medium. All culture media were supplemented with 10% fetal bovine serum (FBS) and 1% penicillin-streptomycin. OC3 cells were cultured in 1:1 DMEM/KSFM (keratinocyte serum-free medium) with supplied supplement of Bovine pituitary extract (BPE) and epidermal growth factor (EGF) followed by instruction. All the cells in this study were maintained at 37° C. in humidified atmosphere containing 5% CO2.
WST-8 [2-(2-methoxy-4-nitrophenyl)-3-(4-nitrophenyl)-5-(2,4-disulfophenyl)-2H-tetrazolium, monosodium salt] cell viability assay
Cells were seeded into 96 well plate and incubated at 37° C. overnight. […] The amount of formazan produced is proportional to the number of live cells and is expressed as cellular viability. […] Cell viability was measured at the absorbance of 450/655 nm wavelength by ELISA reader.

[1] = test system: Poly (ADP-ribose) polymerase (PARP); assay: Western blotting of PARP cleavage; format: cell-based, human
Protocol: Protein expression of Poly (ADP-ribose) polymerase (PARP) were examined in Ca922 cells treated with 25 μM TMR-GBP for 6 hours.
Protein lysate of Ca922 cells treated with TMR-GBP 25 μM were blotted with antibodies against Caspase-3, Caspase-7, Caspase-9 and Poly (ADP-ribose) polymerase (PARP). Representative blots are shown.
(§1) Western Blotting Analysis
(§2) Cells were harvested by trypsion or scratch and lysed in RIPA buffer (50 mM Tris-HCl, pH 7.4, 150 mM NaCl, 0.1% SDS, 0.5% Sodium deoxycholate, 1% NP-40) supplemented with 1× protease inhibitor cocktail. Sample was incubated on ice for 30 minutes and scraped every 10 minutes. Centrifuge at 13,000 rpm at 4° C. for 15 minutes, then collect supernatant for analysis. Protein concentration was determined by Bradford assay. First, 5× Bradford assay dye reagent was diluted into […], and mixture with RIPA (as standard) or samples. Concentration was obtained by spectrophotometer measurement. Equal volume of 2× laemmli buffer containing β-ME was added into protein lysate for goal concentration. Protein samples were boiled at 100° C. for 15 minutes and resolved by 10% SDS-PAGE gel or 4%-15% gradient gel. […] Washing the membrane three times with 1×PBST for every 5 minutes, protein band was detected by modified ECL (ddH2O, […] Tris pH8.0, 200 μM p-coumaric acid, 1.25 mM luminal, 0.001% H2O2) with ImageQuant LAS 4000 digital imaging system.

[2] = test system: intracellular ROS in Ca922 cells; assay: DCFDA cellular ROS detection assay; format: cell-based, human
Protocol: Ca922 cells were seeded in dark, clear bottom 96-well microplate with 25,000 cells per well. Cells were then labeled with 25 μM DCFDA for 45 minutes and 25 μM TMR-GBP for 6 hours. 1% H2O2 (1 hour) and 55 mM TBHP (4 hours) treatments were positive control, mimic ROS activity to oxidize DCFDA to fluorescent DCF. Cells were then analyzed on a fluorescent plate reader. Standard deviations of three independent experiments were indicated as bars.
DCFDA Cellular ROS Detection Assay
Seeded cells at 2.5×10^4 cells/well on a dark, clear bottom 96-well microplate and incubated in complete media with 10% FBS without phenol red. Prepared 1× Buffer by diluting 10× buffer in ddH2O and a working DCFDA solution (25 μM) by adding the appropriate volume of 20 mM DCFDA to 1× Buffer. Washed cells once in 1× Buffer and stained cells with 25 μM DCFDA for 45 minutes at 37° C. Then, washed cells once in 1× Buffer or 1×PBS. TMR-GBP, H2O2 and TBHP could be diluted in complete media with 10% FBS without phenol red. Added 100 μL/well of TMR-GBP, H2O2 (as positive control), TBHP (as positive control) and incubated for desired time period. Cells should not be washed after treatment with the TBHP or other compounds of interest. It should contain non-stained cells to determine background fluorescence. Read signal at Ex/Em: 485/535 nm by fluorescent plate reader

Bax = assay: Western blotting of pro-apoptotic protein Bax; format: cell-based, human; conditions: Ca922, 25 μM, indicated time points, FIG. 6C
Protocol: Protein expression of pro-apoptotic protein Bax were examined in Ca922 cells treated with 25 μM TMR-GBP for indicated time points. The relative protein level was presented below the blot as ratios which was normalized to Bax value of control cells (0 hour).
as §1
as §2, with “gel. Then, transfer to PVDF membrane by 100V or 110V voltage for 1 hour.” for “gel.”

OECM-1 = assay: Time-lapse live cell imaging, OECM-1; format: cell-based, human; conditions: OECM-1, unbound TMR-GBP removed, imaged at 15 minutes interval for 16 hours, FIG. 4
Protocol: Time-Lapse Live Cell Imaging
In order to monitor cell morphology and the stability of TMR-GBP, cells were incubated in 35 mm dish or 4 well dish at 37° C. overnight. Replaced the culture medium with CO2-independent medium with supplement of 10% fetal bovine serum (FBS) and 1% penicillin-streptomycin, cells were treated with reagent (TMR, GBP, TMR-GBP) for the time according to the experiment and subjected to time-lapse live cell imaging. Cells were maintained on the microscope stage incubator at 37° C. Multiple-positional time-lapse imaging was performed using an automated Leica DMI6000 inverted microscope equipped with an HCX PL FL 20λ/NA0.4 objective and Andor Luca R EMCCD camera. Images of cells were taken at different interval time and analyzed by MetaMorph software.

Which cell viability (MCF7) does the source give for `CN(C)c1ccc2c(-c3ccc(C(=O)N[C@@H](CC(N)=O)C(=O)N[C@@H](Cc4ccc(O)cc4)C(=O)N[C@@H](CCCNC(=N)N)C(=O)N[C@@H](Cc4c[nH]c5ccccc45)C(=O)N[C@@H](CCCNC(=N)N)C(=O)N[C@@H](CS)C(=O)N[C@@H](CCCCN)C(=O)N[C@@H](CC(N)=O)C(=O)N[C@@H](CCC(N)=O)C(=O)N[C@@H](CC(N)=O)C(=O)O)cc3C(=O)[O-])c3ccc(=[N+](C)C)cc-3oc2c1` [TMR-GBP] (X1-NYRWRCKNQN-OH; N-terminus and C-terminus assumed) here?
The cell viability was “not markedly affected”.

And the PARP cleavage ([1]; Ca922, 25 μM, 6 hours, FIG. 11A)?
The PARP cleavage was “induced PARP cleavage”.

What about the “PARP cleavage after calpain inhibitor” value ([1]; Ca922, calpain inhibitor pretreated 30 minutes before TMR-GBP, FIG. 11D) of the same molecule?
The value was “still induced PARP cleavage”.

What about the “increase of ROS compared with control cells” value ([2]; Ca922, 25 μM, 6 hours, DCFDA, after background subtraction, FIG. 9) of the same molecule?
Its value is 5 folds.

And the “ROS production with NAC treatment” value ([2]; NAC treatment in the presence of TMR-GBP)?
Its value is “reversed by NAC treatment”.

And the “protein expression of Bax” value (Bax)?
Its value is “increased”.

What about the “cell death by time-lapse microscopy” value (OECM-1) of the same molecule?
Its value is “most cells die in 8 hours”.
